According to patent US11167006B2 (Shanghai Tianci Life Science Development Co., Ltd., priority 2016, dated 2021):
Square brackets hold non-standard residues; d marks the D form. Peptide text beside a SMILES is read from it. NMeF = CN[C@@H](Cc1ccccc1)C(=O)O

Assays:
[1] = tested on: acute pain caused by photothermal therapy in male mice of Kunming strain; assay: Mouse photothermal tail flick analgesia experiment; format: in vivo
Method: After the drug was injected into the lateral ventricle, intrathecal, subcutaneous, and intraperitoneal, the modulating activity on pain was measured by the photothermal tail flick test in mouse.
In the lateral ventricle administration, the lateral ventricle tube-buried surgery of the mouse should be performed in advance to ensure the accuracy of the drug injection site. A brain stereotaxic instrument was used in the lateral ventricle tube-buried surgery of the mouse. Male mice of Kunming strain, weighing 21±2 g; brain stereotaxic instrument is Jiangwan I. After the mice were anesthetized with sodium pentobarbital (i.p., 80 mg/kg mouse body weight), the hair in the head surgery area of the mouse was cut off and the mouse was placed on the brain stereotactic instrument and fixed. The surgery area was disinfected with iodophor, the scalp was opened along the sagittal suture to reveal the skull and the position of the anterior fontanelle can be found. 3 mm backward and 1 mm left/right from the anterior fontanelle, the upper position of the lateral ventricle can be found. A self-made stainless steel tube (a section of 24-gauge, which is connected to a small section of PE-10 tube) is inserted 3 mm downward according to the above position, which is the lateral ventricle. A section of stainless steel string (28-gauge) is inserted into the above-mentioned steel tube to prevent cerebrospinal fluid spillage and foreign matter infection and block the steel pipe. The steel tube is fixed with medical dental powder and glue, and after solidification, the wound is sutured. After the surgery, the mice were recovered tier 4 days, and the follow-up experiment was started on the 5th day. Surgical instruments, stainless steel tubes, etc. involved in the experiment need to be disinfected before the surgery. The mouse lateral ventricle was injected with 4 μl of the drug each time, and then the steel tube was rinsed with 1 μl of physiological saline.
Spinal cord level administration is performed by intrathecal injection in conscious mice, and the specific procedure is described in the method reported by Hylden and Wilcox (Eur. J. Pharmacol. 1980, 67: 313). A 25 μL microinjector was inserted directly into the subarachnoid space between L5 and L6.
The intraperitoneal administration was directly injected using a 1 mL syringe at an injection volume of 10 μl/g body weight. At the time of injection, the mouse was held by left hand with their abdomen facing up and the head was at low position while the tail was at high position. The side of the midline of the abdomen was taken, the needle hole of the syringe was upward, the needle tip penetrates into the skin in a direction less than 20 degrees, the needle tip was slightly pushed in the direction of the mouse head and sticking abdominal wall, and then punctures into the abdominal cavity in the direction of 45 degrees, and was withdrawn to confirm that it has not been pierced into the blood vessel or the intestine, afterwards the drug solution is slowly pushed out.
Subcutaneous injection was also administered directly using a 1 mL syringe in an injection volume of 10 μl/g body weight. At the time of injection, the neck and tail of the mouse were fixed in the left hand, and the head and body were inclined downward at 45 degrees. The needle hole of the syringe is upward, the needle tip is slowly pierced into the skin on the right side of the back center line at an angle of less than 20 degrees, and the needle tip is lightly picked up to confirm that there is no piercing, afterwards the drug solution is slowly pushed out.
Male mice of Kunming strain were used to detect the effects of drugs on pain perception using a photothermal tail flick instrument. The ambient temperature is controlled at 22±1° C., and the experimental animals are free to eat and drink. The basic tail flick incubation period (3-5 seconds) was determined prior to administration, and mice that were too sensitive or dull were discarded. […]

[2] = tested on: CCI-induced neuralgia in mouse; assay: Analgesic tolerance and cross-tolerance in CCI-induced neuralgia; format: in vivo
Method: CCI-induced neuralgia in mouse was detected using a PL-200 thermal tingling instrument and an electronic Von Frey tenderness instrument. The thermal pain threshold of one group of normal mice and the mechanical pain threshold of another group of normal mice were first determined. The mice were then anesthetized with sodium pentobarbital 80 mg/kg mouse body weight) and the mice were fixed in the prone position. The right sciatic nerve was exposed and 3 mild ligation rings were made around the sciatic nerve using a 4-0 chromic catgut, 1 mm intervals. The ligation intensity is preferably a slight tremor in the right hind leg. On the 10th day after surgery, the thermal pain sensitivity value and mechanical pain sensitivity value of the right hind paw of the two groups of mice were determined. Compound 9 or morphine was then administered subcutaneously for seven consecutive days, and compound 9 was given to mice in the morphine group on day 8. The thermal tingling and mechanical pain thresholds at different time points after administration were recorded.
The experimental data were expressed as mean±standard error (Means±S.E.M.). Data for differences between groups treated with the same drug were analyzed by one-way ANOVA (Tukey HSD test of one-way ANOVA) for statistics and analysis, *P<0.05. **P<0.01, ***P<0.001 indicates a significant difference between the pain threshold of the drug-treated group and the pain threshold after the First day of administration.

body temperature of mice = assay: Body temperature of mice (rectal temperature); format: in vivo; conditions: mouse, intrathecal; doses 100, 300, 500 pmol
Method: Mice were fixed in the manner described in Rosow et al. (1980). The ambient temperature was controlled at 21±0.5° C. and the experiment was carried out between 10 am and 2 pm. A temperature sensor attached to the biofunctional test BL-420F system was inserted into the rectum of the mouse in a depth of 2.5 cm to record the rectal temperature. The body temperatures before the intrathecal administration and at 10, 20, 30, 40, 50 and 60 minutes after administration were recorded.
The experiment results of regulation on the mouse body temperature were expressed as the difference between the basal body temperature and the body temperature after administration. The relevant data were expressed as mean+standard error (Means±S.E.M.). Differences between groups treated with different drug concentrations were analyzed by one-way ANOVA (Bonfenoni test in one-way ANOVA) for data statistics and analysis.

[3] = tested on: movement activity of mice; assay: Movement activity, open field experiment; format: in vivo, mouse; conditions: subcutaneous 10 mg/kg
Method: The movement activity of the mice was tested by open field experiments. The experimental device is consisted of a 50×50×50 cm topless black plexiglass box and a movement monitoring system. The experiment was carried out in a soundproof environment with an indoor temperature being controlled at 22±1° C. After the experiment was started, the mice were first recorded for free movement within 30 minutes, and then compound 9 or morphine was administered subcutaneously, the movement of the mice was detected for another 150 minutes. Before the experiment for each mouse was started, the whole box was wiped with alcohol as a whole to exclude the residual odor of the previous mouse from affecting the accuracy of the data.
The experimental data were expressed as mean±standard error (Means±S.E.M.), and the data for differences between groups treated with different drugs were analyzed by one-way ANOVA (Bonferroni test in one-way ANOVA) for statistics and analysis, ***P<0.001 represents that there was a significant difference between the movement activity of the drug-treated group and that of the saline group.

[4] = subcutaneous, seven consecutive days

C[C@@H](NC(=O)[C@@H](N)Cc1ccc(O)cc1)C(=O)NCC(=O)N(C)[C@@H](Cc1ccccc1)C(=O)NCC(=O)N1CCC[C@H]1C(=O)N[C@@H](CCC(N)=O)C(=O)N[C@@H](CCCNC(=N)N)C(=O)N[C@@H](Cc1ccccc1)C(N)=O [Compound 9, Tyr-D-Ala-Gly-NMe-Phe-Gly-Pro-Gln-Arg-Phe-NH2] (H-Y[dA]G[NMeF]GPQRF-NH2)
analgesia ED50 value ([1]; abdominal (intraperitoneal)): 26.58 mg/kg
analgesic potency relative to BN-9 ([1]; intrathecal): 218 times
analgesic ED50 value ([1]; intrathecal administration): 1.33 pmol
maximum analgesic MPE value ([1]; intrathecal, 5 pmol): 94.7%
analgesic ED50 value ([1]; lateral ventricle administration): 16.3 pmol
ED50 value (nmol) (95% confidence interval), analgesic activity ([1]; lateral ventricle injection): 0.0163 (0.0145 to 0.0182) nmol
analgesic potency relative to BN-9 ([1]; lateral ventricle, from ED50 values): 23.9 times
analgesia ED50 value ([1]; subcutaneous): 0.2279 mg/kg
cross-tolerance between compound 9 and morphine ([2]; morphine-tolerant mice given compound 9 s.c. on day 8): no cross-tolerance
analgesic tolerance on continuous injection, mechanical pain sensitivity [2, 4]: not significantly different from that obtained in the first day
analgesic tolerance on continuous injection, thermal sensitivity pain [2, 4]: not significantly different from that obtained in the first day
dose producing a significant effect of lowering body temperature (body temperature of mice): 500 pmol
total distance of movement [3]: 71.39 m
